Tested on: M. smegmatis mc^2155 biofilm
Experiment: Assay for M. smegmatis biofilm inhibition (pellicle formation in M63 medium)
Type: cell-based
Protocol: Two ml of 7H9/ADC culture medium was inoculated with […] of a starter culture of M. smegmatis mc^2155 in 40% glycerol and incubated at 37° C. without shaking for 16-24 hr. This culture was transferred into 10 ml of GAS medium and incubated in the incubator/shaker at 37° C. to an absorbance at 650 nm of <1.5, diluted to an absorbance of 0.02-0.03 in M63 culture medium. Then aliquots of 2.0 ml of this inoculated M63 medium were placed in sterile 1.5×10-cm glass tubes and the purified compounds to be tested were added. The test tubes were incubated in the heat block at 37° C. for 3 to 7 days. Pellicles began to form at the air-liquid interface of control culture on day-2, the pellicle thickened and cells began climbing up the surface of the glass. Such pellicles are recognized as biofilm. In the biofilm inhibition assay, the purified compounds dissolved in CM (2:1) were added at zero time and the development of biofilm was recorded on day-3 and -4.
In the biofilm inhibition assay, control culture began developing a smooth surface growth after two days and the cells began to climb up the wall of the tube. The surface growth continued and thickened over days-4 and -5. There was no observable submerged growth in the M63 medium over this period. […] After this period, rough surface pellicles began to appear along with some submerged growth (planktonic growth).

C16:3-fatty acyl-/C25-mycocerosyl-phthiotriol diester
concentration for complete inhibition of M. smegmatis biofilm formation: 12.5 µg/mL

Trehalose monomycolate [TMM, reference compound]
biological activity in M. smegmatis biofilm inhibition assay (concentration not given): not active
